{
  "source": "paper PMC3272803",
  "about": "“Infection by CXCR4-Tropic Human Immunodeficiency Virus Type 1 Is Inhibited by the Cationic Cell-Penetrating Peptide Derived from HIV-1 Tat” (International Journal of Peptides, 2012)",
  "key": {"[1]": {"tested_on": "HIV-1 strain IIIB", "assay_type": "cell-based, human immunodeficiency virus type 1", "method": "Peptide effectiveness was determined in an HIV-1 infection inhibition assay using P4-R5 MAGI indicator cells. […] The cells were then infected with HIV-1 strain IIIB (Advanced Biotechnologies, Inc., Columbia, MD; 10^7.8 TCID50/mL) at multiplicities of infection (MOI) of 0.6, 0.05, or 0.03 in the presence or absence of peptide or dextran sulfate (DS) (Sigma, St. Louis, MO). Following a 2 h incubation at 37°C, the cells were washed with PBS, provided with 200 μL of new media, and incubated for an additional 46 h. Levels of infection were measured using the Galacto-Star-β-Galactosidase Reporter Gene Assay System for Mammalian Cells (Applied Biosystems, Carlsbad, CA) as described by the manufacturer. Chemiluminescence was measured using a Glomax Luminometer plate reader (Promega, Madison, WI)."}, "[2]": {"tested_on": "P4-R5 MAGI cells", "conditions": "2 h exposure at concentrations below 1 mg/mL; MTT immediately after exposure or 24 h or 48 h after exposure; two independent assays in quadruplicate", "method": "P4-R5 MAGI cells were plated at a concentration of 1.5 × 10^4 cells/well in a flat-bottom 96-well plate. The cells were then exposed to the indicated half log concentrations of peptide and incubated at 37°C for 2 h. Following exposure, the cells were washed with PBS and then assayed for cell viability immediately or at 24 h or 48 h after exposure. Viability was measured using a 3-(4,5-dimethylthiazol-2-yl)-2,5-diphenyltetrazolium bromide (MTT) assay as previously described.\nMean values and standard deviations were calculated from two independent assays in which each concentration was examined in quadruplicate."}, "[3]": {"conditions": "exposure durations as long as 48 h, not conjugated to payload; cited from earlier work"}, "[4]": {"tested_on": "HIV-1", "conditions": "preliminary studies, data not shown"}},
  "note": "pEC50: −log10 of the molar value. Where two headings read alike, the source gives them in different places. No end group written: not given here.",
  "data": [
    {"compound": "N=C(N)NCCC[C@H](NC(=O)[C@H](CCCNC(=N)N)NC(=O)[C@H](CCCNC(=N)N)NC(=O)[C@H](CCCNC(=N)N)NC(=O)[C@H](CCCNC(=N)N)NC(=O)[C@H](CCCNC(=N)N)NC(=O)[C@H](CCCNC(=N)N)NC(=O)[C@H](CCCNC(=N)N)NC(=O)[C@H](CCCNC(=N)N)NC(=O)[C@@H](N)CCCNC(=N)N)C(=O)O", "note": "[R-10, decaarginine]", "values": [
      {"measurement": "EC50 (concentration that resulted in 50% reduction in infection relative to mock-treated, HIV-1-infected cells)", "setting": "[1]; strain IIIB, 2 h", "result": 14, "unit": "µg/mL"}
    ]},
    {"compound": "N=C(N)NCCC[C@H](NC(=O)[C@H](CCCNC(=N)N)NC(=O)[C@H](CCCNC(=N)N)NC(=O)[C@H](CCC(N)=O)NC(=O)[C@H](CCCNC(=N)N)NC(=O)[C@H](CCCNC(=N)N)NC(=O)[C@H](CCCCN)NC(=O)[C@H](CCCCN)NC(=O)[C@H](CCCNC(=N)N)NC(=O)CN)C(=O)O", "note": "[Tat peptide]", "values": [
      {"measurement": "effect on P4-R5 MAGI cell viability", "setting": "[2]", "result": "no effect"},
      {"measurement": "EC50", "setting": "[1]; HIV-1 IIIB, 0.05 MOI (8.8 x 10^3 infectious virions/mL), P4-R5 MAGI cells, 2 h exposure", "result": 140, "unit": "µg/mL"},
      {"measurement": "pEC50", "setting": "[1]; HIV-1 IIIB, 0.6 MOI, P4-R5 MAGI cells, 2 h exposure, same value as 0.094 mg/mL in molar units", "result": 4.30},
      {"measurement": "concentration up to which peptide alone had no effect on cell viability", "setting": "[3]", "result": "up to 100 μM"}
    ]},
    {"compound": "RRKKRRRRRR [TPvar3]", "values": [
      {"measurement": "EC50 (concentration that resulted in 50% reduction in infection relative to mock-treated, HIV-1-infected cells)", "setting": "[1]; strain IIIB, 2 h", "result": 25, "unit": "µg/mL"}
    ]},
    {"compound": "dextran sulfate [reference compound]", "values": [
      {"measurement": "EC50 (concentration that resulted in 50% reduction in infection relative to mock-treated, HIV-1-infected cells)", "setting": "[1]; HIV-1 IIIB, 0.6 MOI, P4-R5 MAGI cells, 2 h exposure with virus, wash, further 46 h, beta-galactosidase chemiluminescence, two independent assays in quadruplicate", "result": 0.7, "unit": "µg/mL"}
    ]},
    {"compound": "nona-arginine", "values": [
      {"measurement": "anti-HIV-1 activity", "setting": "[4]", "result": "anti-HIV-1 activity"}
    ]}
  ]
}
